Entries after “also recorded” stand apart in the source; their conditions may differ. Structures can show the parent of a compound that is named as a salt.
Experiments:
[1] = Percent dissolution after 1 hour, tablet and powder form; assay type: physicochemical
Protocol: Dissolution of the free base of Compound 1 as well as the tosylate salt of Compound 1 was investigated at the 1 hour time point in both tablet form and powder form. The dissolution rate of the tosylate salt was generally much higher than that of the free base.

[2] = tested on: constitutively active MEK1 (2-393); assay: MEK1 kinase assay (33P incorporation onto ERK2); assay type: biochemical
Protocol: N-terminal 6 His-tagged, constitutively active MEK1 (2-393) is expressed in E. coli and protein is purified by conventional methods (Ahn et al., Science 1994, 265, 966-970). The activity of MEK1 is assessed by measuring the incorporation of γ-^33P-phosphate from γ-^33P-ATP onto N-terminal His tagged ERK2, which is expressed in E. coli and is purified by conventional methods, in the presence of MEK1. The assay is carried out in 96-well polypropylene plate. The incubation mixture (100 μL) comprises of 25 mM Hepes, pH 7.4, 10 mM MgCl2, 5 mM β-glycerolphosphate, 100 μM sodium orthovanadate, 5 mM DTT, 5 nM MEK1, and 1 μM ERK2. Inhibitors are suspended in DMSO, and all reactions, including controls are performed at a final concentration of 1% DMSO. Reactions are initiated by the addition of 10 μM ATP (with 0.5 μCi γ-^33P-ATP/well) and incubated at ambient temperature for 45 minutes. Equal volume of 25% TCA is added to stop the reaction and precipitate the proteins. Precipitated proteins are trapped onto glass fiber B filterplates, and excess labeled ATP washed off using a Tomtec MACH III harvestor. Plates are allowed to air-dry prior to adding 30 μL/well of Packard Microscint 20, and plates are counted using a Packard TopCount.

[3] = Solubility in various media (amount dissolved after stirring with excess solid); assay type: physicochemical
Protocol: Due to the observation of the tosylate salt remaining as the salt form in solution, further investigations were performed to probe the solubility of the salts in various media. The amounts dissolved (mg/mL) in the various media after stirring either the Compound 1 free base or the Compound 1 tosylate salt with excess solid for 10 minutes and 60 minutes are shown in Table 4 (SIF=Simulated intestinal fluid; FaSIF=Fasted Simulated Intestinal Fluid).

[4] = Solid state storage stability (disproportionation); assay type: physicochemical; conditions: 3 months storage at 40° C. and 5% relative humidity
[5] = Particle size reduction (milling, micronisation), PXRD; assay type: physicochemical; conditions: pestle and mortar 10 minutes or spiral jet mill, listed as tosylate salt, p-toluenesulfonate
Protocol: In order to investigate the potential for the materials to become amorphous during particle size reduction procedures, batches of the material were milled either by grinding the material in a pestle and mortar for 10 minutes or by micronising using conventional micronising equipment, in this case, a 2″ Spiral jet mill manufactured by Gravesend engineering. The products were subjected to PXRD as described in Example 4 above.

[6] = Intrinsic and powder dissolution rate (pH 6.5); assay type: physicochemical
Protocol: In order to investigate the effects of salts on the release rate, an intrinsic dissolution (pH 6.5) was performed.

[7] = Dog study, plasma levels of Compound 1 after oral tablets; assay type: in vivo, Alderley Park Beagle Dogs; conditions: fasted dogs, 50 mg or 150 mg fbe
Protocol: A dog study was performed to measure plasma levels of Compound 1 in fasted dogs following oral administration of 50 mg free base equivalent (fbe) doses in tablets of the free base and the tosylate salt (form 2 of the 1:1 stoichiometric salt), and 150 mg fbe as 3×50 mg tablets of the tosylate salt.
Tablets of Compound 1 were manufactured using a standard direct compression process. Three batches were made containing Compound 1 free base or Compound 1 tosylate as the active pharmaceutical ingredient (API). The generic formulation contained API (12.5% w/w), fast flo lactose (72.0% w/w), Avicel PH102 (10.0% w/w), AcDiSol (4.0% w/w), sodium lauryl sulfate (0.5% w/w) and magnesium stearate (1.0% w/w). The required quantity of each formulation component, excluding magnesium stearate, was weighed and charged to a mixing vessel. The powders were then mixed for 30 minutes using a tumble blender. The powder mix was then sieved through a 425 μm sieve before being mixed for a further 15 minutes using the tumble blender. […] The required quantity of powder mix for each tablet was weighed individually and charged to the die before being compressed manually using a hand-operated press. […]
Dogs were fed about 400 g of Harlan Teklad 2021 each day and allowed water ad libitum. […] Plasma (50 mcL) was analysed for Compound 1 concentration.

[8] = Disproportionation study, slurry in pH 6.5 buffer, XRPD; assay type: physicochemical; conditions: for disproportionation of the salt to the free base in buffer: suspension/slurry in pH 6.5 buffer, XRPD, p-toluenesulfonate
Protocol: The characteristics of the salts in liquids were investigated by slurrying the material in a range of solvents including a buffer of pH 6.5 to simulate physiological conditions.
Compound 1 tosylate salt was slurried in pH 6.5 buffer at room temperature at a concentration of 100 mg in 2 mL. Samples were taken at 15 minute intervals up to 120 minutes.
In order to prepare the pH 6.5 slurry of Compound 1 tosylate salt, a buffer was first prepared by producing a first solution (Solution A) by adding 90.8 mg of potassium dihydrogen phosphate to a conical 100 mL flask. Deionised water was added to mark ensuring all solid had dissolved. A second solution (Solution B) was prepared by adding 118.8 mg of disodium hydrogen phosphate to a conical 100 mL flask and deionised water was added to mark ensuring all solid had dissolved. Then 64 mL of solution A was mixed with 32 mL of solution B to form a pH 6.5 buffer
The slurry was prepared by adding 100 mg of Compound 1 tosylate to a 10 mL vial and to this was added 2 mL of the pH 6.5 buffer (prepared above), a magnetic stir bar was added and vial placed on a magnetic stirrer. Small aliquots of the suspension were removed after 15 minutes, 30 minutes, 45 minutes, 60 minutes and 120 minutes and each sample was placed on a metal plate on the D8 Diffractometer and an XRPD pattern determined immediately. The results after 0, 15 and 60 minutes are shown in FIGS. 7, 8 and 9, respectively.

[9] = Relative stability of polymorphs; assay type: physicochemical; conditions: 1:1 anhydrous salt

Cn1cnc2c(F)c(Nc3ccc(Br)cc3Cl)c(C(=O)NOCCO)cc21 [Compound 1, 6-(4-bromo-2-chloro-phenylamino)-7-fluoro-3-methyl-3H-benzoimidazole-5-carboxylic acid (2-hydroxy-ethoxy)-amide]
percent dissolution after 1 hour ([1]; FaSSIF, 50 mg (fbe) tablets, listed as Compound 1 Free base): 4.54% | percent dissolution after 1 hour ([1]; FaSSIF, powder, listed as Compound 1 Free base): 4.49% | percent dissolution after 1 hour ([1]; SIF pH 6.5, 50 mg (fbe) tablets, listed as Compound 1 Free base): 2.61% | percent dissolution after 1 hour ([1]; SIF pH 6.5, powder, listed as Compound 1 Free base): 2.36% | activity in MEK1 assay [2]: activity | amount dissolved ([3]; FaSSIF, 10 min, listed as Compound 1 free base): 0.01 mg/mL | amount dissolved ([3]; FaSSIF, 60 min, listed as Compound 1 free base): 0.01 mg/mL | amount dissolved ([3]; H2O, 10 min, listed as Compound 1 free base): 0.004 mg/mL | amount dissolved ([3]; SIF pH 6.5, 10 min, listed as Compound 1 free base): 0.004 mg/mL | amount dissolved ([3]; SIF pH 6.5, 60 min, listed as Compound 1 free base): 0.004 mg/mL | amount dissolved ([3]; Sorenson's buffer, 10 min, listed as Compound 1 free base): 0.004 mg/mL | amount dissolved ([3]; Sorenson's buffer, 60 min, listed as Compound 1 free base): 0.004 mg/mL | amount dissolved ([3]; pH 1.2, 10 min, listed as Compound 1 free base): 0.14 mg/mL | amount dissolved ([3]; pH 1.2, 60 min, listed as Compound 1 free base): 0.13 mg/mL

Cn1cnc2c(F)c(Nc3ccc(Br)cc3Cl)c(C(=O)NOCCO)cc21 [Compound 1 tosylate, 6-(4-bromo-2-chloro-phenylamino)-7-fluoro-3-methyl-3H-benzoimidazole-5-carboxylic acid (2-hydroxy-ethoxy)-amide p-toluenesulfonate]
disproportionation in the solid state [4]: no disproportionation | resistance to becoming amorphous on milling and micronisation [5]: highly resistant to becoming amorphous; also recorded: unique resistance to becoming amorphous | percent dissolution after 1 hour ([1]; FaSSIF, 50 mg (fbe) tablets, p-toluenesulfonate): 23.05% | percent dissolution after 1 hour ([1]; FaSSIF, powder, p-toluenesulfonate): 31.48% | percent dissolution after 1 hour ([1]; SIF pH 6.5, 50 mg (fbe) tablets, p-toluenesulfonate): 6.66% | percent dissolution after 1 hour ([1]; SIF pH 6.5, powder, p-toluenesulfonate): 5.16% | intrinsic dissolution rate relative to the free base [6]: comparable to that of the free base | powder dissolution rate relative to the free base [6]: 60 times | exposure (plasma Compound 1) versus free base [7]: substantial increase in exposure | time the salt remains present in the slurry ([8]; pH 6.5 buffer, room temperature, 100 mg in 2 mL): up to 75 minutes | disproportionation of the salt to the free base in buffer ([8]; listed as Compound 1 tosylate salt): a small amount of free base is produced after 15 minutes | disproportionation of the salt to the free base in buffer [8]: little disproportionation | amount dissolved ([3]; FaSSIF, 10 min, p-toluenesulfonate): 0.19 mg/mL | amount dissolved ([3]; FaSSIF, 60 min, p-toluenesulfonate): 0.04 mg/mL | amount dissolved ([3]; H2O, 10 min, p-toluenesulfonate): 0.058 mg/mL | amount dissolved ([3]; SIF pH 6.5, 10 min, p-toluenesulfonate): 0.041 mg/mL | amount dissolved ([3]; SIF pH 6.5, 60 min, p-toluenesulfonate): 0.020 mg/mL | amount dissolved ([3]; Sorenson's buffer, 10 min, p-toluenesulfonate): 0.019 mg/mL | amount dissolved ([3]; Sorenson's buffer, 60 min, p-toluenesulfonate): 0.007 mg/mL | amount dissolved ([3]; pH 1.2, 10 min, p-toluenesulfonate): 0.41 mg/mL | amount dissolved ([3]; pH 1.2, 60 min, p-toluenesulfonate): 0.19 mg/mL

Cn1cnc2c(F)c(Nc3ccc(Br)cc3Cl)c(C(=O)NOCCO)cc21 [Form 2, 6-(4-bromo-2-chloro-phenylamino)-7-fluoro-3-methyl-3H-benzoimidazole-5-carboxylic acid (2-hydroxy-ethoxy)-amide p-toluenesulfonate]
stability relative to the other polymorph [9]: more stable than the salt in the form of the polymorph Form 1 | disproportionation of the salt to the free base in buffer [8]: some kinetic resistance to disproportionate
